Measurements reported in PubChem BioAssay (NCI).
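In this assay, cells in 96-well plates receive the compound at five concentrations for 48 hours. Endpoints are linearly interpolated between the surrounding concentrations. TGI marks complete inhibition of growth.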

Columns and labels:
Experiment in all cases: NCI-60 cell line screen, 48 h
786-0 renal = system: 786-0 renal
HCT-116 colon = system: HCT-116 colon
K-562 leukemia = system: K-562 leukemia
KM12 colon = system: KM12 colon
MDA-N = system: MDA-N
NCI-H226 lung = system: NCI-H226 lung
OVCAR-3 ovarian = system: OVCAR-3 ovarian
RPMI-8226 leukemia = system: RPMI-8226 leukemia
SF-539 CNS = system: SF-539 CNS
UACC-257 melanoma = system: UACC-257 melanoma

`CC(=O)c1cc2c(s1)C(=O)c1ccccc1C2=O` showed a TGI (786-0 renal) of over 71.3 µM, a TGI (HCT-116 colon) of over 31.2 µM and a TGI (K-562 leukemia) of over 100 µM. It also gave a TGI (KM12 colon) of 11.5 µM, a TGI (MDA-N) of 4.74 µM and a TGI (NCI-H226 lung) of 11.4 µM. For the same compound, the TGI (OVCAR-3 ovarian) was 11.1 µM, the TGI (RPMI-8226 leukemia) was 26.9 µM and the TGI (SF-539 CNS) was 8.32 µM. It also gave a TGI (UACC-257 melanoma) of 3.15 µM.

For `CN(C)CCCOCCn1c2c(c3ccccc31)CCCC2`, the TGI (786-0 renal) was 28.9 µM, the TGI (HCT-116 colon) was 28.8 µM and the TGI (K-562 leukemia) was 58.5 µM. For the same compound, the TGI (KM12 colon) was 43.1 µM, the TGI (MDA-N) was 29 µM and the TGI (NCI-H226 lung) was 63.5 µM. The TGI (OVCAR-3 ovarian) was 53.1 µM, the TGI (RPMI-8226 leukemia) was 33.9 µM and the TGI (SF-539 CNS) was 33.2 µM. For the same compound, the TGI (UACC-257 melanoma) was 33.3 µM.

With `CCOC(=O)C(/C=N\C(=S)Nc1ccc(OCC)cc1)=C(/O)c1ccccc1` the TGI (786-0 renal) was over 100 µM, the TGI (HCT-116 colon) was over 100 µM and the TGI (K-562 leukemia) was over 100 µM. For the same compound, the TGI (KM12 colon) was over 100 µM, the TGI (MDA-N) was over 100 µM and the TGI (NCI-H226 lung) was over 100 µM. It also gave a TGI (OVCAR-3 ovarian) of over 100 µM, a TGI (RPMI-8226 leukemia) of over 100 µM and a TGI (SF-539 CNS) of over 100 µM. The TGI (UACC-257 melanoma) was over 100 µM.

Work on `Cc1cc(=O)oc2cc(O)ccc12` yielded a TGI (786-0 renal) of over 100 µM, a TGI (HCT-116 colon) of over 100 µM and a TGI (K-562 leukemia) of over 100 µM. The TGI (KM12 colon) was over 100 µM, the TGI (MDA-N) was over 100 µM and the TGI (NCI-H226 lung) was over 100 µM. For the same compound, the TGI (OVCAR-3 ovarian) was over 100 µM, the TGI (RPMI-8226 leukemia) was over 100 µM and the TGI (SF-539 CNS) was over 100 µM. For the same compound, the TGI (UACC-257 melanoma) was over 100 µM.

`O=C(NCc1ccc(Cl)cc1)c1cc2sccc2nc1C(F)(F)F` showed a TGI (786-0 renal) of 39.8 µM, a TGI (HCT-116 colon) of over 100 µM and a TGI (K-562 leukemia) of over 100 µM. For the same compound, the TGI (KM12 colon) was over 100 µM, the TGI (MDA-N) was over 100 µM and the TGI (NCI-H226 lung) was 50 µM. For the same compound, the TGI (OVCAR-3 ovarian) was 98.4 µM, the TGI (RPMI-8226 leukemia) was over 100 µM and the TGI (SF-539 CNS) was 70 µM. For the same compound, the TGI (UACC-257 melanoma) was over 100 µM.

For `[N-]=[N+]=Nc1ccc(CNc2cc(=O)[nH]c(=O)[nH]2)cc1`, the TGI (786-0 renal) was over 100 µM, the TGI (HCT-116 colon) was over 100 µM and the TGI (K-562 leukemia) was over 100 µM. The TGI (KM12 colon) was over 100 µM, the TGI (MDA-N) was over 100 µM and the TGI (NCI-H226 lung) was over 100 µM. It also gave a TGI (OVCAR-3 ovarian) of over 100 µM, a TGI (RPMI-8226 leukemia) of over 100 µM and a TGI (SF-539 CNS) of over 100 µM. It also gave a TGI (UACC-257 melanoma) of over 100 µM.

Work on `CC(=O)OCC=C(CCl)CCC(Br)C(C)(C)Br` (mixture of isomers) yielded a TGI (786-0 renal) of over 10 µM, a TGI (HCT-116 colon) of over 10 µM and a TGI (K-562 leukemia) of over 10 µM. The TGI (KM12 colon) was over 10 µM, the TGI (MDA-N) was over 10 µM and the TGI (NCI-H226 lung) was over 10 µM. The TGI (OVCAR-3 ovarian) was over 10 µM, the TGI (RPMI-8226 leukemia) was over 10 µM and the TGI (SF-539 CNS) was over 10 µM. The TGI (UACC-257 melanoma) was over 10 µM.

`Cc1sc2ccccc2[n+]1CCC(=O)O` was tested, and the TGI (786-0 renal) was over 100 µM, the TGI (HCT-116 colon) was over 100 µM and the TGI (K-562 leukemia) was over 100 µM. For the same compound, the TGI (KM12 colon) was over 100 µM, the TGI (MDA-N) was over 100 µM and the TGI (NCI-H226 lung) was over 100 µM. It also gave a TGI (OVCAR-3 ovarian) of over 100 µM, a TGI (RPMI-8226 leukemia) of over 100 µM and a TGI (SF-539 CNS) of over 100 µM. It also gave a TGI (UACC-257 melanoma) of over 100 µM.

`CC1(COS(=O)(=O)OCC2(C)COS(=O)(=O)OC2)COS(=O)(=O)OC1` gave a TGI (786-0 renal) of over 100 µM, a TGI (HCT-116 colon) of over 100 µM and a TGI (K-562 leukemia) of over 100 µM. It also gave a TGI (KM12 colon) of over 77.3 µM, a TGI (MDA-N) of over 100 µM and a TGI (NCI-H226 lung) of over 96.8 µM. It also gave a TGI (OVCAR-3 ovarian) of over 100 µM, a TGI (RPMI-8226 leukemia) of over 50.1 µM and a TGI (SF-539 CNS) of over 100 µM. The TGI (UACC-257 melanoma) was over 100 µM.

For `O=c1oc2ccc(Cl)cc2cc1-c1cn2cc(Cl)ccc2n1`, the TGI (786-0 renal) was over 100 µM, the TGI (HCT-116 colon) was over 100 µM and the TGI (K-562 leukemia) was over 100 µM. The TGI (KM12 colon) was over 58.6 µM, the TGI (MDA-N) was 2.79 µM and the TGI (NCI-H226 lung) was over 100 µM. It also gave a TGI (OVCAR-3 ovarian) of over 100 µM, a TGI (RPMI-8226 leukemia) of over 100 µM and a TGI (SF-539 CNS) of over 100 µM. The TGI (UACC-257 melanoma) was over 100 µM.

`Cn1nc(S(N)(=O)=O)s/c1=N/C(N)=S` showed a TGI (786-0 renal) of over 100 µM, a TGI (HCT-116 colon) of over 100 µM and a TGI (K-562 leukemia) of over 100 µM. The TGI (KM12 colon) was over 100 µM, the TGI (MDA-N) was over 100 µM and the TGI (NCI-H226 lung) was over 100 µM. For the same compound, the TGI (OVCAR-3 ovarian) was over 100 µM, the TGI (RPMI-8226 leukemia) was over 100 µM and the TGI (SF-539 CNS) was over 100 µM. The TGI (UACC-257 melanoma) was over 100 µM.

Work on `COc1cc2c(/C=C3/C(=O)N(c4ccccc4)c4ccccc43)c(Cl)[nH]c2cc1C` yielded a TGI (786-0 renal) of over 44.6 µM, a TGI (HCT-116 colon) of 16.6 µM and a TGI (K-562 leukemia) of over 100 µM. It also gave a TGI (KM12 colon) of 8.07 µM, a TGI (MDA-N) of 5.52 µM and a TGI (NCI-H226 lung) of over 100 µM. The TGI (OVCAR-3 ovarian) was 9.66 µM, the TGI (RPMI-8226 leukemia) was 7.01 µM and the TGI (SF-539 CNS) was 5.86 µM. It also gave a TGI (UACC-257 melanoma) of 21.3 µM.

With `CCO/C(O)=C(/C(=N)N1CCCC1)C(=O)Nc1cccc(C(F)(F)F)c1` the TGI (786-0 renal) was over 100 µM, the TGI (HCT-116 colon) was over 100 µM and the TGI (K-562 leukemia) was over 100 µM. It also gave a TGI (KM12 colon) of over 100 µM, a TGI (MDA-N) of over 100 µM and a TGI (NCI-H226 lung) of 83.7 µM. The TGI (OVCAR-3 ovarian) was over 100 µM, the TGI (RPMI-8226 leukemia) was over 100 µM and the TGI (SF-539 CNS) was 51.9 µM. For the same compound, the TGI (UACC-257 melanoma) was over 100 µM.
